Results taken from ChEMBL document CHEMBL6177928, “Probing structural requirements for thiazole-based mimetics of sunitinib as potent VEGFR-2 inhibitors” (RSC Med Chem, 2025).
Active and inactive are the calls of the source. No cut-off for these calls is given here.

Legend:
MCF7 [1] = assay: Induction of cell cycle arrest in human MCF7 cells assessed as accumulation of cells at G1 phase measured after 24 hrs by PI/Rnase staining based flow cytometry analysis (reference value: 56.37%); format: functional
HeLa [2] = assay: Induction of cell cycle arrest in human HeLa cells assessed as accumulation of cells at S phase measured after 24 hrs by PI/Rnase staining based flow cytometry analysis (reference value: 31.04 %); format: functional
HCT-116 [3] = assay: Induction of cell cycle arrest in human HCT-116 cells assessed as accumulation of cells at G1 phase measured after 24 hrs by PI/Rnase staining based flow cytometry analysis (reference value: 47.28%); format: functional
MCF7 [4] = assay: Induction of cell cycle arrest in human MCF7 cells assessed as accumulation of cells at S phase measured after 24 hrs by PI/Rnase staining based flow cytometry analysis (reference value: 28.77 %); format: functional
HCT-116 [5] = assay: Induction of apoptosis in human HCT-116 cells assessed as early apoptotic cells incubated for 24 hrs by Annexin-V-FITC/PI staining based flow cytometry analysis (reference value: 0.44%); format: functional
HeLa [6] = assay: Induction of cell cycle arrest in human HeLa cells assessed as accumulation of cells at G2/M phase measured after 24 hrs by PI/Rnase staining based flow cytometry analysis (reference value: 16.27 %); format: functional
WISH = assay: Cytotoxicity against human WISH cells at up to 50 uM incubated for 48 hrs by MTT assay; format: toxicity, cell-based
HCT-116 [7] = assay: Induction of apoptosis in human HCT-116 cells assessed as late apoptotic cells incubated for 24 hrs by Annexin-V-FITC/PI staining based flow cytometry analysis (reference value: 0.16%); format: functional
HeLa [8] = assay: Induction of apoptosis in human HeLa cells assessed as early apoptotic cells incubated for 24 hrs by Annexin-V-FITC/PI staining based flow cytometry analysis (reference value: 0.41 %); format: functional
HEp-2 = assay: cells; conditions: Homo sapiens, HEp-2, 48 h
Description: Antitumor activity against human HEp-2 cells assessed as inhibition of cell viability incubated for 48 hrs by MTT assay

MCF7 [9] = assay: Induction of apoptosis in human MCF7 cells assessed as early apoptotic cells incubated for 24 hrs by Annexin-V-FITC/PI staining based flow cytometry analysis (reference value: 0.51%); format: functional
[10] = Cytotoxicity against human WI-38 cells incubated for 48 hrs by MTT assay; format: toxicity, cell-based
WI-38 = assay: Cytotoxicity against human WI-38 cells up to 50 uM incubated for 48 hrs by MTT assay; format: toxicity, cell-based; conditions: wi-38, 48 h
HeLa [11] = assay: cells; conditions: Homo sapiens, 48 h
Description: Antitumor activity against human HeLa cells assessed as inhibition of cell viability incubated for 48 hrs by MTT assay

Ehrlich [12] = assay: Antitumor activity against mouse EAC cells xenografted in Swiss albino mouse assessed as tumor growth inhibition at 10 mg/kg, ip measured after 10 to 20 days; format: functional; conditions: read-out: TGI, time 10-20 day
Ehrlich [13] = assay: Antitumor activity against mouse EAC cells xenografted in Swiss albino mouse assessed as reduction in tumor volume at 10 mg/kg, ip measured after 5 to 20 days; format: functional, organism-based; conditions: time 5-20 day
HeLa [14] = assay: Induction of apoptosis in human HeLa cells assessed as late apoptotic cells incubated for 24 hrs by Annexin-V-FITC/PI staining based flow cytometry analysis (reference value: 0.13 %); format: functional
HeLa [15] = assay: Induction of cell cycle arrest in human HeLa cells assessed as accumulation of cell debris measured after 24 hrs by PI/Rnase staining based flow cytometry analysis (reference value: 1.33%); format: functional
[16] = Cytotoxicity against human WISH cells incubated for 48 hrs by MTT assay; format: toxicity, cell-based
HCT-116 [17] = assay: Induction of apoptosis in human HCT-116 cells assessed as necrotic cells incubated for 24 hrs by Annexin-V-FITC/PI staining based flow cytometry analysis (reference value: 1.34%); format: functional
HeLa [18] = assay: Induction of cell cycle arrest in human HeLa cells assessed as accumulation of cells at G1 phase measured after 24 hrs by PI/Rnase staining based flow cytometry analysis (reference value: 52.69 %); format: functional
HepG2 = assay: cells; conditions: Homo sapiens, HepG2, 48 h
Description: Antitumor activity against human HepG2 cells assessed as inhibition of cell viability incubated for 48 hrs by MTT assay

HCT-116 [19] = assay: Induction of cell cycle arrest in human HCT-116 cells assessed as accumulation of cells at G2/M phase measured after 24 hrs by PI/Rnase staining based flow cytometry analysis (reference value: 17.66 %); format: functional
MCF7 [20] = assay: Induction of apoptosis in human MCF7 cells assessed as necrotic cells incubated for 24 hrs by Annexin-V-FITC/PI staining based flow cytometry analysis (reference value: 1.57%); format: functional
HCT-116 [21] = assay: cells; conditions: Homo sapiens, HCT-116, 48 h
Description: Antitumor activity against human HCT-116 cells assessed as inhibition of cell viability incubated for 48 hrs by MTT assay

MCF7 [22] = assay: Induction of apoptosis in human MCF7 cells assessed as late apoptotic cells incubated for 24 hrs by Annexin-V-FITC/PI staining based flow cytometry analysis (reference value: 0.21%); format: functional
MCF7 [23] = assay: Induction of cell cycle arrest in human MCF7 cells assessed as accumulation of cell debris measured after 24 hrs by PI/Rnase staining based flow cytometry analysis (reference value: 1.61%); format: functional
HCT-116 [24] = assay: Induction of cell cycle arrest in human HCT-116 cells assessed as accumulation of cell debris measured after 24 hrs by PI/Rnase staining based flow cytometry analysis (reference value: 1.33%); format: functional
MCF7 [25] = assay: cells; conditions: Homo sapiens, MCF7, 48 h
Description: Antitumor activity against human MCF7 cells assessed as inhibition of cell viability incubated for 48 hrs by MTT assay

HCT-116 [26] = assay: Induction of cell cycle arrest in human HCT-116 cells assessed as accumulation of cells at S phase measured after 24 hrs by PI/Rnase staining based flow cytometry analysis (reference value: 17.66 %); format: functional
HeLa [27] = assay: Induction of apoptosis in human HeLa cells assessed as necrotic cells incubated for 24 hrs by Annexin-V-FITC/PI staining based flow cytometry analysis (reference value: 1.12 %); format: functional
MCF7 [28] = assay: Induction of cell cycle arrest in human MCF7 cells assessed as accumulation of cells at G2/M phase measured after 24 hrs by PI/Rnase staining based flow cytometry analysis (reference value: 14.86 %); format: functional

N#Cc1sc(Nc2ccccc2)nc1NC(=O)CNNCC(=O)c1ccc(Cl)cc1
Activity (MCF7 [1]): 63.61%
Activity (HeLa [2]): 41.19%
Activity (HCT-116 [3]): 51.96%
Activity (MCF7 [4]): 23.84%
Activity (HCT-116 [5]): 21.42%
Activity (HeLa [6]): 15.23%
Activity (WISH): Non-toxic
Activity (HCT-116 [7]): 8.29%
Activity (HeLa [8]): 19.17%
IC50 (HEp-2): 26.9 µM
Activity (MCF7 [9]): 6.22%
IC50 at 48 h [10]: 60.8 µM
Activity (WI-38): Non-toxic
IC50 (HeLa [11]): 10.6 µM
inhibition in vivo at 10 mg/kg (Ehrlich [12]): > 50%
Activity (Ehrlich [13]): Active
Activity (HeLa [14]): 12.35%
Activity (HeLa [15]): 2.17%
IC50 at 48 h [16]: 77.2 µM
Activity (HCT-116 [17]): 2.2%
Activity (HeLa [18]): 43.64%
IC50 (HepG2): 15.2 µM
Activity (HCT-116 [19]): 16.05%
Activity (MCF7 [20]): 4.47%
IC50 (HCT-116 [21]): 11.6 µM
Activity (MCF7 [22]): 19.17%
Activity (MCF7 [23]): 1.58%
Activity (HCT-116 [24]): 2.25%
IC50 (MCF7 [25]): 13.3 µM
Activity (HCT-116 [26]): 31.99%
Activity (HeLa [27]): 2.66%
Activity (MCF7 [28]): 12.55%
